Test results taken from patent publication US4414408A, “Phenolic antioxidants” (The Goodyear Tire & Rubber Company, priority 1982, dated 1983).

Assay: Oxygen absorption (time to absorb one percent oxygen)
Settings: 1.0 part antioxidant in SBR-1006

Q: Which “Hours to Absorb 1% O2” value does the source give for C=CC(=O)Oc1c(Cc2cc(C)cc(C(C)(C)C)c2O)cc(C)cc1C(C)(C)C [Example 8, 2-(2-hydroxy-3-tert.butyl-5-methylbenzyl)-4-methyl-6-tert.butyl phenyl acrylate] here?
A: 315 h
